Experimental findings from patent US8785728B2, “AAD-12 event 1606 and related transgenic soybean lines” (priority 2010, dated 2014) are described below.

In data set [1] the test system is soybean event pDAB4472-1606. It is filed as in vivo, Glycine max. Particulars: 2,4-D dimethylamine salt 2240 g ae/ha applied at V3 and R2; adjusted mean. An excerpt: The agronomic characteristics of soybean event pDAB4472-1606 were compared to an isogenic non-transformed soybean line across diverse geographical locations during the 2009 growing season. Data were collected and analyzed for the following agronomic characteristics: • 1.) Stand count: The number of plants in a representative one meter section of each row was counted. Taking data at the VC-V2 growth stage; • 2.) Emergence: Calculated by dividing Stand count (above) by number of seeds planted in a one meter section; • 3.) Seedling Vigor at V1-V3: Vigor is an overall estimate of the health of the plant. […] Recorded in the number of days from planting date; • 8.) Stand count at R2: The number of plants in a representative one meter section of row were counted. Note taken at the R2 growth stage; • 9.) Overall visual crop injury, chlorosis and necrosis at 1 day after R2 chemical application; • 10.) Overall visual crop injury, chlorosis and necrosis at 7 days after R2 chemical application; • 11.) Overall visual crop injury, chlorosis and necrosis at 14 days after R2 chemical application. • 12.) Disease incidence (if any) at R6 growth stage: Recorded the percentage of plants affected by the disease. 0-100% scale; • 13.) Insect damage (if any) at R6 growth stage: Recorded the percentage of plant tissue in the plot damaged by insects. 0-100% scale; • 14.) Plant height at senescence: Recorded the average height of the plants in each plot. Measured plants from the soil surface to the tip after leaves had fallen. Recorded measurement in centimeters; • 15.) Days to maturity. Recorded when 95% of the pods in a plot had reached their dry down color and were at ˜15% moisture or less. Recorded in days from planting; • 16.) Lodging: Recorded lodging at harvest time. […] (All plants in a plot standing straight=1 and all plants in the plot flat=5); • 17.) Shattering: Recorded shattering at harvest time. Recorded as an estimate of number of pods shattered. […] Recorded seed weight and moisture. […]

Data set [2] deals with soybean event pDAB4472-1606. Kind of data set: Field expression level study with 2X spray rate of 2,4-D. The class given is in vivo, Glycine max. Particulars: 2X spray rate (2,240 gm ae/ha of 2,4-D); at any point of the study. The procedure: Field expression level studies at various plant stages were performed on soybean event pDAB4472-1606 at pre V3, post V3, pre R2, and post R2. Expression values were similar for all the sprayed treatments as well as for the plots sprayed and unsprayed with 2,4-D herbicide. […] Average expression across all lineages in pre V3 plant stage was 200 ug/cm^2. After spraying 2,4-D the expression remained stable averaging […] across lineages. By the time the soybeans reached pre R2 the average expression had dropped slightly to an average of 250 ug/cm^2. After spraying 2,4-D the expression post R2 had remained at the previous average of 250 ug/cm^2.

On to `O=C(O)COc1ccc(Cl)cc1Cl` [2,4-D, 2,4-dichlorophenoxyacetic acid], for which, in data set [1], the “Overall crop injury 1 day after V3 spray” value was 0.3%, the “Overall crop injury 7 days after V3 spray” value was determined as 2.1% and the “Overall crop injury 14 days after V3 spray” value came out at 3.3%. Also, in data set [2], the “Injury on the plants” value is “no significant injury was observed”.
